Experiments:
MMP-9 or MMP-2 = conditions: compared with SB-3CT; cited from earlier work
[1] = tested on: controlled cortical impact TBI at p21; test: Acute cell death (TUNEL, activated caspase-3) at 48 h after TBI at p21; format: in vivo, male C57Bl/6J mice; conditions: 48 h post-injury; 25 mg/kg s.c.
Procedure: The controlled cortical impact model of TBI was used as previously described. TBI to the p21 mouse approximates a toddler-aged child, based upon the structural, biochemical and behavioral characteristics of this age. Pups were anaesthetized with 1.25% 2,2,2-tribromoethanol (Avertin; Sigma-Aldrich, St. Louis, MO) in isotonic saline (i.p. bolus at 0.02 mL/g body weight). After craniotomy, mice were subjected to a controlled cortical impact at 4.5 m/s velocity and 1.73 mm depth of penetration, for a sustained depression of 150 ms, using a 3.0 mm convex impactor tip. Mice were maintained on a water-circulating heating pad throughout surgery and recovery. Following impact, the scalp was closed with sutures and each animal administered 0.5 ml of isotonic saline subcutaneously (s.c.) to prevent post-operative dehydration. […] All mice were closely monitored for 1–2 hours post-surgery until return of the righting reflex and full mobilization. […]
Brain injured animals and sham controls were euthanized at 2 d post-injury. Dying cells were detected by double-labeling for terminal deoxynucleotidyl transferase-mediated dUTP nick 3’-end labeling (TUNEL) in combination with immunofluorescence for activated (cleaved) caspase-3, a hallmark of apoptosis. […] Immuno-positive cells with DAPI-positive nuclei were counted using Metamorph analysis software (Molecular Devices, Sunnyvale, CA).

O=S(=O)(CC1CS1)c1ccc(Oc2ccc(O)cc2)cc1 (stereo not drawn) [p-OH SB-3CT]
residence time (how long the drug is bound to the target MMPs) (MMP-9 or MMP-2): considerably longer than that of SB-3CT | cell death by TUNEL staining compared to vehicle-treated controls [1]: A similar degree of cell death | cell death by activated caspase-3 compared to vehicle-treated controls [1]: A similar degree of cell death

Reference: PMC4654502, “Early Gelatinase Activity Is Not a Determinant of Long-Term Recovery after Traumatic Brain Injury in the Immature Mouse” (PLoS ONE, 2015)
